“And” between values parts separate entries of the source, which are not always exact repeats. Equal entries are not always repeated. Inconclusive results and toxic doses are left out. Cut-off read from the data, not from the text of the source: active = T/C of 150% or more; inactive = T/C below 125%.
System: L1210 leukemia ip in BDF1 mice, survival T/C
Test: NCI In Vivo Anticancer Drug Screen. Data for tumor model L1210 Leukemia (intraperitoneal) in B6D2F1 (BDF1) mice
Conditions: endpoint: mean survival time, higher = longer survival
In short: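 In this screen, tumor-bearing mice given compound are compared to those given vehicle, and their survival values are reported as a treated-to-control quotient.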

[1] = dose: 100.0 mg/kg/injection, schedule: Q01DX009 (ip), vehicle: saline with Tween-80
[2] = dose: 100.0 mg/kg/injection, schedule: Q01DX001 (ip), vehicle: Klucel (hydroxypropylcellulose) (HPC)
[3] = dose: 200.0 mg/kg/injection, schedule: Q01DX001 (ip), vehicle: Klucel (hydroxypropylcellulose) (HPC)
[4] = dose: 400.0 mg/kg/injection, schedule: Q01DX001 (ip), vehicle: Klucel (hydroxypropylcellulose) (HPC)
[5] = dose: 2.0 mg/kg/injection, schedule: Q01DX009 (ip), vehicle: saline
[6] = dose: 4.0 mg/kg/injection, schedule: Q01DX009 (ip), vehicle: saline
[7] = dose: 8.0 mg/kg/injection, schedule: Q01DX009 (ip), vehicle: saline
[8] = dose: 100.0 mg/kg/injection, schedule: Q04DX002 (ip), vehicle: saline with Tween-80
[9] = dose: 400.0 mg/kg/injection, schedule: Q04DX002 (ip), vehicle: saline with Tween-80
[10] = dose: 100.0 mg/kg/injection, schedule: Q01DX001 (ip), vehicle: saline with Tween-80
[11] = dose: 200.0 mg/kg/injection, schedule: Q01DX001 (ip), vehicle: saline with Tween-80
[12] = dose: 400.0 mg/kg/injection, schedule: Q01DX001 (ip), vehicle: saline with Tween-80
[13] = dose: 200.0 mg/kg/injection, schedule: Q04DX002 (ip), vehicle: saline with Tween-80

Measured: T/C

O=C(Nc1ccc(Cl)c(Cl)c1)Sc1ccc(Cl)cc1
inactive: dose: 25.0 mg/kg/injection, schedule: Q01DX009 (ip), vehicle: saline with Tween-80 100 % of control | dose: 50.0 mg/kg/injection, schedule: Q01DX009 (ip), vehicle: saline with Tween-80 103 % of control | [1] 101 % of control

CC(O)CC1CC(=O)CCC1=O (stereo not drawn)
inactive: dose: 100.0 mg/kg/injection, schedule: Q01DX009 (ip), vehicle: acetone 96 % of control | dose: 200.0 mg/kg/injection, schedule: Q01DX009 (ip), vehicle: acetone 101 % of control | dose: 400.0 mg/kg/injection, schedule: Q01DX009 (ip), vehicle: acetone 102 % of control

NC(C(=O)O)C1SCCS1 (stereo not drawn)
inactive: dose: 100.0 mg/kg/injection, schedule: Q01DX001 (ip), vehicle: carboxymethylcellulose (CMC) 102 % of control | dose: 200.0 mg/kg/injection, schedule: Q01DX001 (ip), vehicle: carboxymethylcellulose (CMC) 102 % of control | dose: 400.0 mg/kg/injection, schedule: Q01DX001 (ip), vehicle: carboxymethylcellulose (CMC) 98 % of control

CCOC(=O)C12CCC=C1N(S(=O)(=O)N(C)C)c1ccc(NS(=O)(=O)N(C)C)cc12 (stereo not drawn)
inactive: dose: 45.0 mg/kg/injection, schedule: Q04DX003 (ip), vehicle: Klucel (hydroxypropylcellulose) (HPC) 105 % of control | dose: 65.0 mg/kg/injection, schedule: Q04DX003 (ip), vehicle: Klucel (hydroxypropylcellulose) (HPC) 105 % of control | [2] 97 % of control | dose: 100.0 mg/kg/injection, schedule: Q04DX003 (ip), vehicle: Klucel (hydroxypropylcellulose) (HPC) 105 % of control and 120 % of control | [3] 104 % of control | dose: 200.0 mg/kg/injection, schedule: Q04DX003 (ip), vehicle: Klucel (hydroxypropylcellulose) (HPC) 89 % of control | [4] 98 % of control | dose: 400.0 mg/kg/injection, schedule: Q04DX003 (ip), vehicle: Klucel (hydroxypropylcellulose) (HPC) 97 % of control

O=C(Oc1ccc([N+](=O)[O-])cc1)c1ccc(C[P+](c2ccccc2)(c2ccccc2)c2ccccc2)cc1
inactive: dose: 100.0 mg/kg/injection, schedule: Q01DX009 (ip), vehicle: saline 98 % of control | dose: 100.0 mg/kg/injection, schedule: Q04DX003 (ip), vehicle: saline 93 % of control | dose: 200.0 mg/kg/injection, schedule: Q01DX009 (ip), vehicle: saline 98 % of control | dose: 200.0 mg/kg/injection, schedule: Q04DX003 (ip), vehicle: saline 90 % of control | dose: 400.0 mg/kg/injection, schedule: Q01DX009 (ip), vehicle: saline 96 % of control | dose: 400.0 mg/kg/injection, schedule: Q04DX003 (ip), vehicle: saline 93 % of control

c1ccc([P+](CCC[P+](c2ccccc2)(c2ccccc2)c2ccccc2)(c2ccccc2)c2ccccc2)cc1
inactive: [5] 105 % of control | dose: 2.0 mg/kg/injection, schedule: Q04DX003 (ip), vehicle: saline 106 % of control | [6] 108 % of control | dose: 4.0 mg/kg/injection, schedule: Q04DX003 (ip), vehicle: saline 101 % of control | [7] 107 % of control | dose: 8.0 mg/kg/injection, schedule: Q04DX003 (ip), vehicle: saline 94 % of control and 97 % of control

O/N=C(\c1ccccc1)C1C(/C(=N/O)c2ccccc2)C1c1ccccc1 (stereo not drawn)
inactive: [8] 88 % of control | [9] 88 % of control

Nc1nnnn1-c1ccc(O)cc1
inactive: [10] 101 % of control | [11] 103 % of control | [12] 99 % of control

CC(C)C(N)(CCN1CCOCC1)c1cccc2ccccc12 (stereo not drawn)
inactive: [1] 99 % of control | [8] 88 % of control | dose: 200.0 mg/kg/injection, schedule: Q01DX009 (ip), vehicle: saline with Tween-80 101 % of control | [13] 92 % of control

Cc1ccc(Oc2ccc(-c3cc(=O)c4cc(S(=O)(=O)F)ccc4[nH]3)cc2)cc1
inactive: dose: 100.0 mg/kg/injection, schedule: Q04DX003 (ip), vehicle: gum acacia 96 % of control | dose: 200.0 mg/kg/injection, schedule: Q04DX003 (ip), vehicle: gum acacia 88 % of control | dose: 400.0 mg/kg/injection, schedule: Q04DX003 (ip), vehicle: gum acacia 86 % of control

O=C1c2cccc3c([N+](=O)[O-])ccc(c23)C(=O)N1NCCO
inactive: dose: 100.0 mg/kg/injection, schedule: Q04DX003 (ip), vehicle: carboxymethylcellulose (CMC) 102 % of control | dose: 200.0 mg/kg/injection, schedule: Q04DX003 (ip), vehicle: carboxymethylcellulose (CMC) 100 % of control

COc1ccc2c(c1)c(Cl)c1ccc(Cl)cc1[n+]2[O-]
inactive: [8] 91 % of control | [13] 95 % of control | [9] 107 % of control

CC#CC1(O)CCC2C3CC(C)C4CC(=O)CCC4(C)C3CCC21C (stereo not drawn)
inactive: dose: 146.0 mg/kg/injection, schedule: Q01DX Z (sc), vehicle: steriod suspending solution 108 % of control | dose: 222.0 mg/kg/injection, schedule: Q01DX Z (sc), vehicle: steriod suspending solution 112 % of control | dose: 333.0 mg/kg/injection, schedule: Q01DX Z (sc), vehicle: steriod suspending solution 112 % of control | dose: 500.0 mg/kg/injection, schedule: Q01DX Z (sc), vehicle: steriod suspending solution 106 % of control

[N-]=[N+]=Nc1ccc2c(=O)c3ccccc3[nH]c2c1
inactive: dose: 100.0 mg/kg/injection, schedule: Q04DX003 (ip), vehicle: acetone 89 % of control | dose: 200.0 mg/kg/injection, schedule: Q04DX003 (ip), vehicle: acetone 98 % of control | dose: 400.0 mg/kg/injection, schedule: Q04DX003 (ip), vehicle: acetone 96 % of control

O=C(OC1COC(Br)C(OC(=O)c2ccc([N+](=O)[O-])cc2)C1OC(=O)c1ccc([N+](=O)[O-])cc1)c1ccc([N+](=O)[O-])cc1 (stereo not drawn)
inactive: dose: 100.0 mg/kg/injection, schedule: Q01DX001 (ip), vehicle: saline 98 % of control | dose: 200.0 mg/kg/injection, schedule: Q01DX001 (ip), vehicle: saline 96 % of control | dose: 400.0 mg/kg/injection, schedule: Q01DX001 (ip), vehicle: saline 91 % of control

Nc1nc(N)c(CCCOc2ccccc2Cl)c(N)n1
inactive: [2] 102 % of control | [3] 102 % of control

CCCCCCCCCCCCCCCCC1CC2CCCCC2C1 (stereo not drawn)
inactive: [10] 100 % of control | [11] 93 % of control | [12] 94 % of control

CC(=O)C(C(N)=O)C(c1ccc2c(c1)OCO2)C(C(C)=O)C(=O)NCc1ccccc1 (stereo not drawn)
inactive: dose: 25.6 mg/kg/injection, schedule: Q04DX002 (ip), vehicle: saline with Tween-80 98 % of control | dose: 64.0 mg/kg/injection, schedule: Q04DX002 (ip), vehicle: saline with Tween-80 95 % of control | dose: 100.0 mg/kg/injection, schedule: Q04DX003 (ip), vehicle: saline with Tween-80 87 % of control | dose: 160.0 mg/kg/injection, schedule: Q04DX002 (ip), vehicle: saline with Tween-80 91 % of control | dose: 200.0 mg/kg/injection, schedule: Q04DX003 (ip), vehicle: saline with Tween-80 90 % of control | [9] 98 % of control | dose: 400.0 mg/kg/injection, schedule: Q04DX003 (ip), vehicle: saline with Tween-80 91 % of control

O=C(Nc1cccc(C2=NCCN2)c1)c1ccc(C(=O)Nc2cccc(C3=NCCN3)c2)c(Cl)c1
inactive: dose: 0.75 mg/kg/injection, schedule: Q01DX Z (ip), vehicle: carboxymethylcellulose (CMC) 101 % of control | dose: 1.0 mg/kg/injection, schedule: Q01DX009 (ip), vehicle: saline 97 % of control | dose: 1.5 mg/kg/injection, schedule: Q01DX Z (ip), vehicle: carboxymethylcellulose (CMC) 95 % of control and 104 % of control | [5] 97 % of control | dose: 3.0 mg/kg/injection, schedule: Q01DX Z (ip), vehicle: carboxymethylcellulose (CMC) 96 % of control and 98 % of control | [6] 95 % of control | dose: 6.0 mg/kg/injection, schedule: Q01DX Z (ip), vehicle: carboxymethylcellulose (CMC) 93 % of control and 96 % of control | [7] 94 % of control | dose: 9.0 mg/kg/injection, schedule: Q01DX Z (ip), vehicle: methylcellulose (MC) 93 % of control | dose: 12.0 mg/kg/injection, schedule: Q01DX Z (ip), vehicle: carboxymethylcellulose (CMC) 95 % of control | dose: 12.0 mg/kg/injection, schedule: Q01DX Z (ip), vehicle: methylcellulose (MC) 95 % of control | dose: 18.0 mg/kg/injection, schedule: Q01DX Z (ip), vehicle: methylcellulose (MC) 109 % of control | dose: 27.0 mg/kg/injection, schedule: Q01DX Z (ip), vehicle: methylcellulose (MC) 106 % of control

COc1cc(C)c2oc(C)nc2c1
inactive: [2] 92 % of control | [4] 92 % of control
